Test results as given in PMC8413479 (Journal of molecular biology, 2021).

B1: HD5: enteric human α-defensin HD5 (peptide, UniProt Q01523 20-94, looked up)
Defensin alpha 5: ESLQERADEATTQKQSGEDNQDLAISFAGNGLSALRTSGSQARATCYCRTGRCATRESLSGVCEISGRLYRLCCR
modifications: Defensin-5

Assays:
[1] = system: SARS-CoV-2 (USA-WA1/2020), Vero E6 cells
SARS-CoV-2 Spike protein [2] = test: Differential scanning fluorimetry; type: binding; settings: 1 μM Spike, PBS, Sypro Orange
[3] = system: SARS-CoV-2 Spike-pseudotyped viruses (HIV-based), H1299 cells; type: cell-based, SARS-CoV-2 Spike (HIV-based pseudovirus); human H1299 cells
[4] = system: SARS-CoV-2 (USA-WA1/2020), Vero E6 cells; type: cell-based
[5] = system: SARS-CoV-2 Spike/ACE2; Spike-expressing U2OS cells fusing with ACE2-producing Calu-3 cells; type: cell-based, human cells; SARS-CoV-2 Spike
SARS-CoV-2 Spike protein [6] = type: biochemical
[7] = system: SARS-CoV-2 Spike pseudovirus; settings: cited from earlier work
[8] = system: human angiotensin-converting enzyme 2 (ACE2 receptor); settings: on enterocytes; cited from earlier work
[9] = micromolar concentrations of defensin

Row | Molecule | inhibition of SARS-CoV-2 infection [1] | IC50 ([1]; USA-WA1/2020), Vero E6 cells, 24 h) [µM] | Spike destabilization relative to HNP1 (SARS-CoV-2 Spike protein [2]) | destabilization of Spike protein (SARS-CoV-2 Spike protein [2]; [9]) | melting peak of Spike (SARS-CoV-2 Spike protein [2]; [9]) | effect of serum on inhibition of pseudovirus infection [3] | inhibition of infection after pre-incubation of pseudovirus [3] | pseudovirus infection efficiency after pre-treatment of cells [3] | SARS-CoV-2 infectivity [4] | inhibition of syncytia formation [5] | aggregation and precipitation of Spike (SARS-CoV-2 Spike protein [6]) | SARS-CoV-2 Spike pseudovirus infection [7] | binding to human ACE2 [8]
1 | CC[C@H](C)[C@@H]1NC(=O)CNC(=O)[C@H](CCCCN)NC(=O)CNC(=O)[C@@H]2CSSC[C@H](NC1=O)C(=O)N[C@@H](CCCNC(=N)N)C(=O)N[C@H]1CSSC[C@H](NC(=O)[C@H](CCCNC(=N)N)NC(=O)[C@@H]3CSSC[C@H](NC(=O)[C@H]([C@@H](C)CC)NC1=O)C(=O)NCC(=O)N[C@@H](CCCNC(=N)N)C(=O)NCC(=O)N[C@@H]([C@@H](C)CC)C(=O)N3)C(=O)N[C@@H]([C@@H](C)CC)C(=O)N2 [RC-101] | inhibited SARS-CoV-2 infection | 29 ± 7.6 | less prominent than for HNP1 | destabilized | loss of the melting peak at its normal position | serum had a negative influence on the inhibitory ability | significantly inhibited the infection | did not affect the pseudovirus infection efficiency | strongly inhibited | strongly inhibited syncytia formation | partial aggregation and precipitation |  | 
2 | B1 |  |  |  |  |  |  |  |  |  |  |  | inhibition of SARS-CoV-2 Spike pseudovirus infection | binds to human angiotensin-converting enzyme 2
